Experimental data published in patent US10597388B2, “Pyridazinone herbicides” (FMC CORPORATION, priority 2014, dated 2020).

Experiments:
Experiment in all cases: Test D controlled growth environment herbicide test, pre- and postemergence
Format in all cases: in vivo
[1] = system: buckwheat, wild (wild buckwheat, Polygonum convolvulus)
How it was run: (§1)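 Pre-emergence: seeds sown in silt loam soil were sprayed with compound in a non-phytotoxic solvent mix containing surfactant. Post-emergence: plants at 2 to 18 cm (1- to 4-leaf stage) in peat moss/vermiculite medium got the same formulation. Visual 0–100 rating versus controls after 14 to 21 d.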

[2] = system: field violet (Viola arvensis)
How it was run: as §1

[3] = system: mustard, wild (wild mustard, Sinapis arvensis)
How it was run: as §1

[4] = system: canarygrass (Phalaris minor)
How it was run: as §1

[5] = system: bromegrass, downy (downy bromegrass, Bromus tectorum)
How it was run: as §1

[6] = system: Russian thistle (Salsola kali)
How it was run: as §1

[7] = system: chamomile (scentless chamomile, Matricaria inodora)
How it was run: as §1

[8] = system: oilseed rape (Brassica napus)
How it was run: as §1

[9] = system: field poppy (Papaver rhoeas)
How it was run: as §1

[10] = system: wheat, spring (spring wheat, Triticum aestivum)
How it was run: as §1

[11] = system: bluegrass (annual bluegrass, Poa annua)
How it was run: as §1

[12] = system: radish, wild (wild radish, Raphanus raphanistrum)
How it was run: as §1

[13] = system: oat, wild (wild oat, Avena fatua)
How it was run: as §1

[14] = Postemergence, 31 g ai/ha, scale 0 to 100 (0 no effect, 100 complete control)
[15] = Postemergence, 125 g ai/ha, visual rating on scale 0 (no effect) to 100 (complete control), 14 to 21 d
[16] = Postemergence, 250 g ai/ha, scale 0 to 100 (0 no effect, 100 complete control)
[17] = Preemergence, 62 g ai/ha, scale 0 to 100 (0 no effect, 100 complete control)
[18] = Preemergence, 125 g ai/ha, scale 0 to 100 (0 no effect, 100 complete control)
[19] = Preemergence, 250 g ai/ha, scale 0 to 100 (0 no effect, 100 complete control)
[20] = postemergence, 62 g ai/ha, scale 0 to 100, 0 no effect, 100 complete control

Structure (SMILES): C#CCOC(=O)Oc1c(C)nn(C)c(=O)c1-c1c(C)sc2ccc(C)cc12 [Compound 87]
- Buckwheat, Wild plant response rating [1, 14]: 85
- Plant response rating, Buckwheat, Wild [1, 15]: 100
- Plant response rating, Buckwheat, Wild [1, 16]: 100
- Plant response rating (scale of 0 to 100), Buckwheat, Wild ([1]; Preemergence, 31 g ai/ha): 0
- Plant response rating, Buckwheat, Wild [1, 17]: 0
- Plant response rating, Buckwheat, Wild [1, 18]: 0
- Plant response rating, Buckwheat, Wild [1, 19]: 60
- Plant response rating, Buckwheat, Wild [1, 20]: 100
- Field Violet plant response rating [2, 14]: 80
- Plant response rating, Field Violet [2, 15]: 100
- Plant response rating, Field Violet [2, 16]: 100
- Plant response rating (scale of 0 to 100), Field Violet ([2]; Preemergence, 31 g ai/ha): 80
- Plant response rating (scale of 0 to 100), Field Violet ([2]; Preemergence, 62 g ai/ha): 85
- Plant response rating, Field Violet [2, 18]: 95
- Plant response rating, Field Violet [2, 19]: 100
- Plant response rating, Field Violet [2, 20]: 85
- Mustard, Wild plant response rating [3, 14]: 10
- Plant response rating, Mustard, Wild [3, 15]: 25
- Plant response rating, Mustard, Wild [3, 16]: 60
- Plant response rating (scale of 0 to 100), Mustard, Wild ([3]; Preemergence, 31 g ai/ha): 0
- Plant response rating (scale of 0 to 100), Mustard, Wild ([3]; Preemergence, 62 g ai/ha): 0
- Plant response rating, Mustard, Wild [3, 18]: 0
- Plant response rating, Mustard, Wild [3, 19]: 25
- Plant response rating, Mustard, Wild [3, 20]: 35
- Canarygrass plant response rating [4, 14]: 55
- Plant response rating, Canarygrass [4, 15]: 85
- Plant response rating, Canarygrass [4, 16]: 90
- Plant response rating (scale of 0 to 100), Canarygrass ([4]; Preemergence, 31 g ai/ha): 85
- Plant response rating (scale of 0 to 100), Canarygrass ([4]; Preemergence, 62 g ai/ha): 90
- Plant response rating, Canarygrass [4, 18]: 90
- Plant response rating, Canarygrass [4, 19]: 95
- Plant response rating, Canarygrass [4, 20]: 80
- Bromegrass, Downy plant response rating [5, 14]: 45
- Plant response rating, Bromegrass, Downy [5, 15]: 65
- Plant response rating, Bromegrass, Downy [5, 16]: 65
- Plant response rating (scale of 0 to 100), Bromegrass, Downy ([5]; Preemergence, 31 g ai/ha): 25
- Plant response rating, Bromegrass, Downy [5, 17]: 65
- Plant response rating, Bromegrass, Downy [5, 18]: 75
- Plant response rating, Bromegrass, Downy [5, 19]: 80
- Plant response rating, Bromegrass, Downy [5, 20]: 65
- Russian Thistle plant response rating [6, 14]: 60
- Plant response rating, Russian Thistle [6, 15]: 65
- Plant response rating, Russian Thistle [6, 16]: 75
- Plant response rating (scale of 0 to 100), Russian Thistle ([6]; Preemergence, 31 g ai/ha): 5
- Plant response rating (scale of 0 to 100), Russian Thistle ([6]; Preemergence, 62 g ai/ha): 15
- Plant response rating, Russian Thistle [6, 18]: 85
- Plant response rating, Russian Thistle [6, 19]: 100
- Plant response rating, Russian Thistle [6, 20]: 65
- Chamomile plant response rating [7, 14]: 90
- Plant response rating, Chamomile [7, 15]: 100
- Plant response rating, Chamomile [7, 16]: 100
- Plant response rating (scale of 0 to 100), Chamomile ([7]; Preemergence, 31 g ai/ha): 95
- Plant response rating (scale of 0 to 100), Chamomile ([7]; Preemergence, 62 g ai/ha): 95
- Plant response rating, Chamomile [7, 18]: 100
- Plant response rating, Chamomile [7, 19]: 100
- Plant response rating, Chamomile [7, 20]: 100
- Oilseed Rape plant response rating [8, 14]: 15
- Plant response rating, Oilseed Rape [8, 15]: 65
- Plant response rating, Oilseed Rape [8, 16]: 75
- Plant response rating (scale of 0 to 100), Oilseed Rape ([8]; Preemergence, 31 g ai/ha): 15
- Plant response rating (scale of 0 to 100), Oilseed Rape ([8]; Preemergence, 62 g ai/ha): 30
- Plant response rating, Oilseed Rape [8, 18]: 30
- Plant response rating, Oilseed Rape [8, 19]: 45
- Plant response rating, Oilseed Rape [8, 20]: 40
- Field Poppy plant response rating [9, 14]: 70
- Plant response rating, Field Poppy [9, 15]: 85
- Plant response rating, Field Poppy [9, 16]: 100
- Plant response rating (scale of 0 to 100), Field Poppy ([9]; Preemergence, 31 g ai/ha): 100
- Plant response rating (scale of 0 to 100), Field Poppy ([9]; Preemergence, 62 g ai/ha): 100
- Plant response rating, Field Poppy [9, 18]: 100
- Plant response rating, Field Poppy [9, 19]: 100
- Plant response rating, Field Poppy [9, 20]: 85
- Wheat, Spring plant response rating [10, 14]: 0
- Plant response rating, Wheat, Spring [10, 15]: 5
- Plant response rating, Wheat, Spring [10, 16]: 10
- Plant response rating (scale of 0 to 100), Wheat, Spring ([10]; Preemergence, 31 g ai/ha): 0
- Plant response rating (scale of 0 to 100), Wheat, Spring ([10]; Preemergence, 62 g ai/ha): 0
- Plant response rating, Wheat, Spring [10, 18]: 15
- Plant response rating, Wheat, Spring [10, 19]: 20
- Plant response rating, Wheat, Spring [10, 20]: 0
- Bluegrass plant response rating [11, 14]: 25
- Plant response rating, Bluegrass [11, 15]: 45
- Plant response rating, Bluegrass [11, 16]: 45
- Plant response rating (scale of 0 to 100), Bluegrass ([11]; Preemergence, 31 g ai/ha): 25
- Plant response rating, Bluegrass [11, 17]: 35
- Plant response rating, Bluegrass [11, 18]: 45
- Plant response rating, Bluegrass [11, 19]: 70
- Plant response rating, Bluegrass [11, 20]: 25
- Radish, Wild plant response rating [12, 14]: 15
- Plant response rating, Radish, Wild [12, 15]: 30
- Plant response rating, Radish, Wild [12, 16]: 60
- Plant response rating (scale of 0 to 100), Radish, Wild ([12]; Preemergence, 31 g ai/ha): 45
- Plant response rating (scale of 0 to 100), Radish, Wild ([12]; Preemergence, 62 g ai/ha): 65
- Plant response rating, Radish, Wild [12, 18]: 75
- Plant response rating, Radish, Wild [12, 19]: 95
- Plant response rating, Radish, Wild [12, 20]: 20
- Oat, Wild plant response rating [13, 14]: 85
- Plant response rating, Oat, Wild [13, 15]: 98
- Plant response rating, Oat, Wild [13, 16]: 100
- Plant response rating (scale of 0 to 100), Oat, Wild ([13]; Preemergence, 31 g ai/ha): 80
- Plant response rating (scale of 0 to 100), Oat, Wild ([13]; Preemergence, 62 g ai/ha): 85
- Plant response rating, Oat, Wild [13, 18]: 90
- Plant response rating, Oat, Wild [13, 19]: 95
- Plant response rating, Oat, Wild [13, 20]: 95
